Measured values taken from patent publication US6696621B2, “Selectable marker in plants” (Paradigm Genetics, Inc., priority 2001, dated 2004).

B1: NRG protein: novel nourseothricin N-acetyltransferase, amino acid sequence of SEQ ID NO. 1; confers resistance to nourseothricin (protein)
chain: MTTLDDTAYRYRTSVPGDAEAIEALDGSFTTDTVFRVTATGDGFTLREVPVDPPLTKVFPDDESDDESDDGEDGDPDSRTFVAYGDDGDLAGFVVVSYSGWNRRLTVEDIEVAPEHRGHGVGRALMGLATEFARERGAGHLWLEVTNVNAPAIHAYRRMGFTLCGLDTALYDGTASDGEQALYMSMPCP
modifications: Novel protein conferring resistance to the antibiotic known as nourseothricin

Legend:
[1] = test system: rice callus, derived from immature rice embryos of the variety TP309; assay: Dose response of clonNAT on rice callus growth and survival; assay type: cell-based; conditions: 26° C. in the dark
Experimental: a) Dose response. For selection of transgenic calli based on resistance to clonNAT following Agrobacterium-mediated transformation of rice callus material, a dose response experiment is made to determine the concentration of clonNAT in callus growth medium in order to inhibit the growth of rice callus, or to kill the rice cells. Growth media (GM) used for rice callus comprise the following basic components: N6 salts (Duchefa) 3.95 g/l; B5 vitamins (Duchefa) 112 mg/l; proline (Duchefa) 500 mg/l; glutamine (Duchefa) 500 mg/l; casein hydrolysate (Duchefa) 500 mg/l. […]
Several pieces of rice callus, derived from immature rice embryos of the variety TP309 (National Small Grain Collection, USDA, ARS, Aberdeen, Id.) are put on these plates, the plates are incubated at 26° C. in the dark, and survival of the embryos and proliferation of the embryo cells are observed every day. Based on the survival rate of the embryos on the media plates containing different concentrations of clonNAT, a useful concentration of clonNAT for selection of transgenic rice is determined to be within a range of about 20 to about 1000 mg/l or more, preferably about 200 mg/l or less. […]

[2] = test system: wildtype Arabidopsis thaliana; assay: Dose response of clonNAT sprayed on wildtype Arabidopsis thaliana seedlings; assay type: in vivo; conditions: sprayed on three consecutive days with 0.005% Silwet L-77; assessed 36 hours after last spray
Experimental: a) Dose response. The selection conditions for plants that are transgenic with the nrg gene are determined in a dose response experiment. From about 2000 to 3000 wildtype Arabidopsis thaliana seeds per pot are sown in 5″×5″ (13 cm×13 cm) soil pots. When the first true leaves of the seedlings have emerged after approximately 7 days, the seedlings are sprayed with a hand-held sprayer until all leaf material is completely wet on three consecutive days with a solution of 0.005% Silwet L-77 (50 ul/l) in water and variable concentrations of clonNAT (1, 5, 10, 20, 50, 100, 250, 500 mg/l). The results are assessed 36 hours after the last spray. A useful range of concentration of clonNAT for selection of transgenic Arabidopsis plants (as assessed as concentrations that kill non-transgenic Arabidopsis plants after applying the described sprayings) is determined within a range of about 20 to about 1000 mg/l or more, preferably about 200 mg/l or less.

[3] = Ability of NRG protein to impart resistance to nourseothricin; conditions: NRG protein with aspartate instead of glycine at position 70

Row | Molecule | preferred concentration of clonNAT for selection of transgenic rice ([1]; callus growth medium plates, based on survival rate of embryos) [mg/L] | fate of embryo-derived rice callus on clonNAT-containing medium plates ([1]; clonNAT 200 mg/l selection plates, after 4-5 weeks) | preferred concentration of clonNAT for selection of transgenic Arabidopsis plants [2] [mg/L] | ability to impart resistance to the nourseothricin antibiotic [3]
1 | 2-[4-O-Carbamoyl-2-deoxy-2-(3,6-diaminohexan-amido)-B-D-gulopyranoslamino)-3,3a,5 ,6,7,7a-hexahydro-5-hydroxy-4H-imidazo[4,5-c]pyridin-4one dihydrogensulphate [clonNAT] | ≤ 200 | died | ≤ 200 | 
2 | B1 |  |  |  | retains the ability to impart resistance
